# Laboratory results published in the NIST ThermoML archive (doi:10.1021/je034102r).
# ± gives the expanded uncertainty stated by the source.
# Experiment: molar heat capacity at constant pressure
# Conditions: 101.33 kPa, Liquid, heat bridge-scanning calorimeter
compound,measurement,setting,value
CCCCn1cc[n+](C)c1.F[P-](F)(F)(F)(F)F [1-butyl-3-methylimidazolium hexafluorophosphate],molar heat capacity at constant pressure,480.79 K,497.89 ± 9.9 J/K/mol
same,molar heat capacity at constant pressure,480.92 K,498.17 ± 9.9 J/K/mol
same,molar heat capacity at constant pressure,481.06 K,498.17 ± 9.9 J/K/mol
same,molar heat capacity at constant pressure,481.2 K,498.17 ± 9.9 J/K/mol
same,molar heat capacity at constant pressure,481.5 K,498.46 ± 9.9 J/K/mol
same,molar heat capacity at constant pressure,481.64 K,498.74 ± 9.9 J/K/mol
same,molar heat capacity at constant pressure,481.78 K,499.31 ± 9.9 J/K/mol
same,molar heat capacity at constant pressure,481.91 K,498.74 ± 9.9 J/K/mol
same,molar heat capacity at constant pressure,482.05 K,498.46 ± 9.9 J/K/mol
same,molar heat capacity at constant pressure,482.2 K,498.46 ± 9.9 J/K/mol
same,molar heat capacity at constant pressure,482.34 K,498.46 ± 9.9 J/K/mol
same,molar heat capacity at constant pressure,482.47 K,498.46 ± 9.9 J/K/mol
same,molar heat capacity at constant pressure,482.61 K,498.46 ± 9.9 J/K/mol
same,molar heat capacity at constant pressure,482.75 K,498.46 ± 9.9 J/K/mol
same,molar heat capacity at constant pressure,482.89 K,498.46 ± 9.9 J/K/mol
same,molar heat capacity at constant pressure,483.19 K,498.46 ± 9.9 J/K/mol
same,molar heat capacity at constant pressure,483.32 K,498.74 ± 9.9 J/K/mol
same,molar heat capacity at constant pressure,483.46 K,499.02 ± 9.9 J/K/mol
same,molar heat capacity at constant pressure,483.6 K,499.02 ± 9.9 J/K/mol
same,molar heat capacity at constant pressure,483.74 K,499.31 ± 9.9 J/K/mol
same,molar heat capacity at constant pressure,483.87 K,499.31 ± 9.9 J/K/mol
same,molar heat capacity at constant pressure,484.01 K,499.31 ± 9.9 J/K/mol
same,molar heat capacity at constant pressure,484.15 K,500.16 ± 9.9 J/K/mol
same,molar heat capacity at constant pressure,484.29 K,500.16 ± 9.9 J/K/mol
same,molar heat capacity at constant pressure,484.59 K,499.59 ± 9.9 J/K/mol
same,molar heat capacity at constant pressure,484.72 K,499.59 ± 9.9 J/K/mol
same,molar heat capacity at constant pressure,484.86 K,499.31 ± 9.9 J/K/mol
same,molar heat capacity at constant pressure,485 K,499.59 ± 9.9 J/K/mol
same,molar heat capacity at constant pressure,485.14 K,499.88 ± 9.9 J/K/mol
same,molar heat capacity at constant pressure,485.27 K,499.59 ± 9.9 J/K/mol
same,molar heat capacity at constant pressure,485.41 K,499.88 ± 9.9 J/K/mol
same,molar heat capacity at constant pressure,485.55 K,499.59 ± 9.9 J/K/mol
same,molar heat capacity at constant pressure,485.69 K,500.16 ± 9.9 J/K/mol
same,molar heat capacity at constant pressure,485.83 K,500.45 ± 9.9 J/K/mol
same,molar heat capacity at constant pressure,485.96 K,501.01 ± 9.9 J/K/mol
same,molar heat capacity at constant pressure,486.26 K,500.73 ± 9.9 J/K/mol
same,molar heat capacity at constant pressure,486.4 K,501.01 ± 9.9 J/K/mol
same,molar heat capacity at constant pressure,486.53 K,501.01 ± 9.9 J/K/mol
same,molar heat capacity at constant pressure,486.67 K,500.45 ± 9.9 J/K/mol
same,molar heat capacity at constant pressure,486.81 K,500.16 ± 9.9 J/K/mol
same,molar heat capacity at constant pressure,486.95 K,500.16 ± 9.9 J/K/mol
same,molar heat capacity at constant pressure,487.08 K,500.45 ± 9.9 J/K/mol
same,molar heat capacity at constant pressure,487.22 K,501.01 ± 9.9 J/K/mol
same,molar heat capacity at constant pressure,487.36 K,500.73 ± 9.9 J/K/mol
same,molar heat capacity at constant pressure,487.66 K,502.15 ± 9.9 J/K/mol
same,molar heat capacity at constant pressure,487.8 K,501.58 ± 9.9 J/K/mol
same,molar heat capacity at constant pressure,487.94 K,501.3 ± 9.9 J/K/mol
same,molar heat capacity at constant pressure,488.07 K,501.01 ± 9.9 J/K/mol
same,molar heat capacity at constant pressure,488.21 K,501.01 ± 9.9 J/K/mol
same,molar heat capacity at constant pressure,488.35 K,501.87 ± 9.9 J/K/mol
same,molar heat capacity at constant pressure,488.48 K,501.3 ± 9.9 J/K/mol
same,molar heat capacity at constant pressure,488.62 K,501.01 ± 9.9 J/K/mol
same,molar heat capacity at constant pressure,488.77 K,500.73 ± 9.9 J/K/mol
same,molar heat capacity at constant pressure,488.91 K,501.3 ± 9.9 J/K/mol
same,molar heat capacity at constant pressure,489.05 K,501.58 ± 9.9 J/K/mol
same,molar heat capacity at constant pressure,489.34 K,501.01 ± 9.9 J/K/mol
same,molar heat capacity at constant pressure,489.48 K,501.58 ± 9.9 J/K/mol
same,molar heat capacity at constant pressure,489.62 K,501.3 ± 9.9 J/K/mol
same,molar heat capacity at constant pressure,489.75 K,501.87 ± 9.9 J/K/mol
same,molar heat capacity at constant pressure,489.89 K,501.3 ± 9.9 J/K/mol
same,molar heat capacity at constant pressure,490.03 K,501.01 ± 9.9 J/K/mol
same,molar heat capacity at constant pressure,490.16 K,501.3 ± 9.9 J/K/mol
same,molar heat capacity at constant pressure,490.3 K,501.87 ± 9.9 J/K/mol
same,molar heat capacity at constant pressure,490.44 K,501.01 ± 9.9 J/K/mol
same,molar heat capacity at constant pressure,490.74 K,500.73 ± 9.9 J/K/mol
same,molar heat capacity at constant pressure,490.88 K,501.3 ± 9.9 J/K/mol
same,molar heat capacity at constant pressure,491.02 K,501.01 ± 9.9 J/K/mol
same,molar heat capacity at constant pressure,491.15 K,501.01 ± 9.9 J/K/mol
same,molar heat capacity at constant pressure,491.29 K,501.01 ± 9.9 J/K/mol
same,molar heat capacity at constant pressure,491.43 K,501.01 ± 9.9 J/K/mol
same,molar heat capacity at constant pressure,491.56 K,500.73 ± 9.9 J/K/mol
same,molar heat capacity at constant pressure,491.7 K,501.3 ± 9.9 J/K/mol
same,molar heat capacity at constant pressure,491.84 K,501.58 ± 9.9 J/K/mol
same,molar heat capacity at constant pressure,491.98 K,501.3 ± 9.9 J/K/mol
same,molar heat capacity at constant pressure,492.11 K,501.01 ± 9.9 J/K/mol
same,molar heat capacity at constant pressure,492.41 K,501.3 ± 9.9 J/K/mol
same,molar heat capacity at constant pressure,492.55 K,502.15 ± 9.9 J/K/mol
same,molar heat capacity at constant pressure,492.69 K,501.87 ± 9.9 J/K/mol
same,molar heat capacity at constant pressure,492.82 K,502.43 ± 9.9 J/K/mol
same,molar heat capacity at constant pressure,492.96 K,502.72 ± 9.9 J/K/mol
same,molar heat capacity at constant pressure,493.1 K,502.15 ± 9.9 J/K/mol
same,molar heat capacity at constant pressure,493.23 K,501.87 ± 9.9 J/K/mol
same,molar heat capacity at constant pressure,493.37 K,501.58 ± 9.9 J/K/mol
same,molar heat capacity at constant pressure,493.51 K,501.3 ± 9.9 J/K/mol
same,molar heat capacity at constant pressure,493.81 K,501.3 ± 9.9 J/K/mol
same,molar heat capacity at constant pressure,493.95 K,502.43 ± 9.9 J/K/mol
same,molar heat capacity at constant pressure,494.09 K,503.29 ± 9.9 J/K/mol
same,molar heat capacity at constant pressure,494.22 K,502.72 ± 9.9 J/K/mol
same,molar heat capacity at constant pressure,494.36 K,502.72 ± 9.9 J/K/mol
same,molar heat capacity at constant pressure,494.5 K,502.72 ± 9.9 J/K/mol
same,molar heat capacity at constant pressure,494.64 K,502.72 ± 9.9 J/K/mol
same,molar heat capacity at constant pressure,494.77 K,502.72 ± 9.9 J/K/mol
same,molar heat capacity at constant pressure,494.91 K,502.72 ± 9.9 J/K/mol
same,molar heat capacity at constant pressure,495.05 K,502.72 ± 9.9 J/K/mol
same,molar heat capacity at constant pressure,495.2 K,503.29 ± 9.9 J/K/mol
same,molar heat capacity at constant pressure,495.5 K,502.72 ± 9.9 J/K/mol
